Results from patent publication US20100204149A1, “USE OF OCTREOTIDE AS A THERAPEUTIC AGENT” (priority 2007, published 2010).

Experiments:
[1] = Cytotoxicity testing in MRC-5 cells (CellTiter 96); assay type: cell-based; details: human, MRC-5 cells (embryonal lung fibroblasts); MRC-5 cells; 6 days incubation; read-out: % Cell viability
Method: For cytotoxicity testing, MRC-5 cells were seeded at 2,500 cells/well in 96 well plates using growth medium. […] The following day, peptide was added and tested in duplicates. After a 6 days incubation period, cell viability was measured using CellTiter 96 Solution (Promega). Plates were incubated for additional 4 hours at 37° C.

[2] = tested on: Primary Human endothelial cells (HUVEC); test: Endothelial cell migration assay; assay type: cell-based; details: peptide 10 micrograms per ml, 22 hours
Method: Endothelial cell migration is a prerequisite for the process of neo-vascularization or angiogenesis which is crucial for on-site recruitment of blood vessel formation. Primary Human endothelial cells (HUVEC) were seeded in insert chambers with 3 micrometer pore size of multi-transwell plate for 6 hours at 37° C. in Endothelial Cell Basal Medium (EBM) supplemented with 0.1% bovine serum albumin. Thereafter, designated concentration of test peptide—10 micrograms per ml—was added in duplicate wells. The endothelia were allowed to migrate for 22 hours at 37° C., then, migrated cells were fixed and stained with Hoechst 33342 dye. Images of 3 fields per insert were taken and the number of migrated cells per field were quantified using the ImageProPlus software. Data were analyzed for the average number of the migrated cells and standard deviation of six data points for each treatment condition. Active test peptide against HUVEC migration was determined based on 50% inhibition of migrated cells as compared with the control. Statistic p values were computed using the Student's t-test.

[3] = Cell viability (dye uptake) in HBV assay; assay type: cell-based; details: human, HepG2-2.2.15, peptide 10 micrograms per ml
[4] = Cytotoxicity (MTS cell viability) in HIV-1 assay; details: human, CEM-SS cells
HCMV strain AD169 = test: HCMV plaque reduction assay in MRC-5 cells; assay type: cell-based; details: peptide 10 micrograms per ml, 7-10 days
From the text: Ganciclovir was used as positive control.

HIV-1IIIB = test: HIV-1 antiviral assay (CPE reduction) in CEM-SS cells; details: peptide 10 micrograms per ml; 6 days post-infection; MTS
Streptococcus pneumoniae = Streptococcus pneumoniae assay; assay type: cell-based; details: peptide 10 micrograms per ml, read visually
Method: The antibacterial assay was conducted using clear, U-bottom 96-well microtiter plates. Cation-adjusted Mueller-Hinton Broth (MHB) was used for testing Streptococcus pneumoniae. The peptide of the invention (0.1 ml of each—10 micrograms per ml—) was dispensed into wells in duplicate. Then the wells were inoculated with 5×10^5 CFU/mL Streptococcus pneumoniae in 0.1 ml volume. For control purposes, each plate included 4 wells containing media without bacterial inoculum and 4 wells containing medium with inoculum but without peptide. The plates were incubated for 12 h at 37° C., and read visually 18-24 hours post-incubation. Growth control of Streptococcus pneumoniae was examined first to determine adequacy of media preparations and growth conditions. Acceptable growth is defined as ≧2 mm wide button of cells at the bottom of each sample well, or obvious turbidity in the culture supernatant. Test wells were examined and scored as positive/negative for activity. A positive score for activity is based on complete inhibition of macroscopic growth of the test Streptococcus pneumoniae.

[5] = tested on: Human Peripheral Blood Mononuclear Cells (PBMC); details: T cell proliferation; peptide 10 micrograms per ml; 3 days
Method: Human Peripheral Blood Mononuclear Cells (PBMC) were obtained from normal human donors. The T cell proliferation was induced by stimulation of the cells with the T cell mitogen phytohemagglutinin (PHA), either in the absence (positive proliferation control), or in the presence of test peptide—10 micrograms per ml—to examine their effects on the T cell proliferating response. 10^5/well PBMC were plated in 96-well microtiter plates and assayed in duplicate with the peptide. Cell cultures were incubated at 37° C. for 3 days in a 5% CO2 incubator and were thereafter pulsed with 1 microCi/well ^3H-thymidine for additional 12 hours of culture. At the end of incubation time, the plates were harvested and the cells counted by liquid scintillation for the incorporation of ^3H-thymidine as a measure of T cell proliferation.

Human A549 cells = test: Apoptosis induction assay (Annexin-5); assay type: cell-based; details: peptide 10 micrograms per ml, 24 hours
From the text: Human A549 cells (carcinomic human alveolar basal epithelial cells) were utilized in the experiments employing the Annexin-5 apoptosis assay. Annexin-5 is a member of a highly conserved protein family that binds acidic phospholipids in a calcium-dependent manner. […] Phosphatidylserine is translocated from the inner side of the plasma membrane to the outer layer when cells undergo death by apoptosis or cell necrosis and serves as a signal by which cell destined for death are recognized by phagocytes. Test peptide—10 micrograms per ml—were exposed for 24 hours to the A549 cells before they were analyzed for signs of apoptosis.

[6] = tested on: spleen cells of Ovalbumin immunized Balb/c mice; test: Th1/Th2 cytokine profiling assay; assay type: cell-based, mouse; details: peptide 10 micrograms per ml; Ovalbumin restimulation; 72 hours
From the text: The Balb/c mice (originated in 1923, it is a popular strain and is used in many different research disciplines. Also classified as an inbred from the production of 20 or more successive brother-sister matings, the Balb/c mouse is albino and small in size) were immunized on Days 1, 15, and 29 with Ovalbumin (Ovalbumin is the main protein found in egg white, commonly used to stimulate an immunological reaction in test animals) in PBS (5 micrograms/injection). On day 50, spleens of the mice were harvested (3 weeks after last boost with Ovalbumin). Cells were cultured (2×10^5/well in triplicate) and incubated with culture medium or test peptide—10 micrograms per ml—for 30 min. Thereafter, additional Ovalbumin was added to the cells at 10 micrograms/ml for in vitro restimulation of the cells. 72 hours later, cell supernatants were harvested and assayed using the Becton Dickinson Mouse Th1/Th2 Cytokine CBA Kit. This kit can be used to measure Interleukin-2 (IL-2), Interleukin-4 (IL-4), Interleukin-5 (IL-5), Interferon-γ (IFN-γ), and Tumor Necrosis Factor-α (TNF-α) protein levels in a single sample. The kit performance has been optimized for analysis of physiologically relevant concentrations ([…] levels) of specific cytokine proteins in tissue culture supernatants and serum samples.

RAW 264.7 cells = test: Phagocytosis assay with Fluorescein-labeled Escherichia coli; assay type: cell-based, mouse; details: peptide 10 micrograms per ml
Method: RAW 264.7 (Mouse leukaemic monocyte macrophage cell line) cells were obtained from ATCC and grown in RPMI 1640 medium containing 10% FBS. Cells were incubated in 12×75 mm tubes at 37° C. with test peptide—10 micrograms per ml—for 30 min prior to adding Fluorescein-labeled Escherichia coli bacteria as the agent to be ingested. After the cells were incubated for additional 60 min at 37° C. and allowed to ingest the Fluorescein-labeled Escherichia coli bacteria, cells were fixed with 1% paraformaldehyde. The samples were then analyzed by flow cytometry to determine the amount of phagocytosis as a function of brightness (the greater the phagocytic activity, the more fluorescence in the macrophage population). Data are reported as % positive and the mean fluorescence intensity (MFI) of positively stained cells.

C[C@@H](O)[C@@H]1NC(=O)[C@H](CCCCN)NC(=O)[C@@H](Cc2c[nH]c3ccccc23)NC(=O)[C@H](Cc2ccccc2)NC(=O)[C@@H](NC(=O)[C@H](N)Cc2ccccc2)CSSC[C@@H](C(=O)N[C@H](CO)[C@@H](C)O)NC1=O [Octreotide, H-D-Phe-Cys-Phe-D-Trp-Lys-Thr-Cys-L-threoninol]
viability at 144 h [1]: 100% | % inhibition of migration [2]: −24% | viability at 144 h, 10 micrograms per ml [3]: 97.8% | viability at 10 micrograms per ml [4]: 100% | % plaque reduction (HCMV strain AD169): 0.0% | % CPE reduction in HIV-1 infected CEM-SS cells (HIV-1IIIB): 0.0% | % inhibition (Streptococcus pneumoniae): 100.0% | % of PHA induced control [5]: 100.0% | % of induction (Human A549 cells): 2.6% | IFNγ spleen cells; TH1 response (% of control) [6]: 56.0 % of control | IL-2 spleen cells (% of control) [6]: 159.5 % of control | IL-4 spleen cells; TH2 response (% of control) [6]: 114.4 % of control | IL-5 spleen cells; TH2 response (% of control) [6]: 96.1 % of control | TNF-a spleen cells; TH1 response (% of control) [6]: 113.0 % of control | % of control phagocytosis (RAW 264.7 cells): 105.9%
